Measurements reported in patent US20240158355A1, “BET SUBFAMILY INHIBITORS AND METHODS USING SAME” (Baylor College of Medicine, priority 2021, published 2024).

Columns and labels:
mice = conditions: cited from earlier work
[1] = mouse, in vivo; cited from earlier work
BRD4-BD2 = BRD4-BD2 (Homo sapiens (Human), UniProt O60885); conditions: cited from earlier work
BD2 = conditions: cited from earlier work
BRDT-BD2 [2] = molecular target: T1, BRDT-BD2 (Homo sapiens (Human), UniProt Q58F21); assay: AlphaScreen bromodomain proximity assay (competition with biotinylated (+)-JQ1), BRDT-BD2; assay type: binding
BRDT-BD1 = BRDT-BD1 (Homo sapiens (Human), UniProt Q58F21); assay: AlphaScreen bromodomain proximity assay (competition with biotinylated (+)-JQ1), BRDT-BD1; assay type: binding; conditions: NE: no effect at 10 μM
[3] = Metabolic stability assay in mouse liver microsomes; assay type: in vitro ADME; conditions: for half-life at 2 μM: 0.5 mg protein/mL, 37° C., read-out: MLM t1/2; for mouse microsomal stability: in words
Description: (§1) Compounds 3-10, 15, 17, and 20-22 (2.0 μM) were incubated in the mouse or human liver microsomes (0.5 mg protein/mL) at 37° C. […] The reaction mixtures were centrifuged at rcf 15,000 for 15 min. […] The column temperature was maintained at 40° C. […] Q Exactive MS was operated in positive or negative mode with electrospray ionization.

[4] = Metabolic stability assay in human liver microsomes; assay type: in vitro ADME; conditions: for half-life at 2 μM: read-out: HLM t1/2; for human microsomal stability: in words
Description: as §1

His-BRDT-BD2 = His-BRDT-BD2 (Homo sapiens (Human), UniProt Q58F21); conditions: 0 = theoretically present in the library but not detected in the sequencing data
bromodomains = conditions: BROMOscan competition binding
Description: (§2) Binding constants (Kds) were calculated with a standard dose-response curve using the Hill equation:
1+(KdHill Slope/DoseHill Slope)
The Hill Slope was set to −1.
(§3) Curves were fitted using a non-linear least square fit with the Levenberg-Marquardt algorithm.

BRDT-BD2 [5] = molecular target: T1, BRDT-BD2; conditions: BromoKdELECT dose-response
Description: as §2
1+(KdHill Slope/DoseHill Slope)
The Hill Slope was set to −1.
as §3

[6] = data >60 min is an extrapolated estimate
[7] = 2.0 μM, 0.5 mg protein/mL, 37° C.

## Cc1sc2c(c1C)C(c1ccc(Cl)cc1)=N[C@@H](CC(=O)OC(C)(C)C)c1nnc(C)n1-2 [(+)-JQ1, tert-butyl (S)-2-(4-(4-chlorophenyl)-2,3,9-trimethyl-6H-thieno[3,2-f][1,2,4]triazolo[4,3-a][1,4]diazepin-6-yl)acetate]
mice
  contraceptive effect: complete and reversible contraceptive effect
[1]
  bioavailable across the blood-testis boundary: 100%

## CCNC(=O)c1cc2c(-c3cc(C(C)(C)O)ccc3Oc3c(C)cc(F)cc3C)cn(C)c(=O)c2[nH]1 [ABBV-744]
BRD4-BD2
  selectivity for BRD4-BD2: 95-290 fold

## CC(=O)Nc1c(F)cc(C(=O)N[C@H]2CC[C@H](O)CC2)cc1O[C@@H](C)c1ccccc1 [GSK046]
BD2
  selectivity for BD2 over BD1: > 300 fold

## CNC(=O)c1ccc(C(=O)Nc2cc(NC(=O)c3ccc4c(c3)c(-c3cc5ccccc5n3C)nn4C)ccc2OC)cc1 [compound 3, N^1-(2-Methoxy-5-(1-methyl-3-(1-methyl-1H-indol-2-yl)-1H-indazole-5-carboxamido)phenyl)-N^4-methylterephthalamide]
BRDT-BD2 [2]
  IC50: 0.022 µM
BRDT-BD1
  IC50: > 10 µM
[3]
  half-life at 2 μM: 31 min
[4]; [6]
  half-life at 2 μM: 87 min
His-BRDT-BD2
  Count (observed molecule count in the DEC-Tec screen against BRDT-BD2): 1039

## CNC(=O)c1ccc(C(=O)Nc2cc(NC(=O)c3ccc4c(c3)c(-c3ccc(N)cc3C)nn4C)ccc2OC)cc1 [compound 4, N^1-(5-(3-(4-Amino-2-methylphenyl)-1-methyl-1H-indazole-5-carboxamido)-2-methoxyphenyl)-N^4-methylterephthalamide]
BRDT-BD2 [2]
  IC50: 0.012 µM
BRDT-BD1
  IC50: > 10 µM
[3]
  half-life at 2 μM: 14 min
[4]; [6]
  half-life at 2 μM: 100 min
His-BRDT-BD2
  Count (observed molecule count in the DEC-Tec screen against BRDT-BD2): 838

## CNC(=O)c1ccc(C(=O)Nc2cc(NC(=O)c3ccc4c(c3)c(-c3ccc(C)cc3C)nn4C)ccc2OC)cc1 [compound 5, N^1-(5-(3-(2,4-Dimethylphenyl)-1-methyl-1H-indazole-5-carboxamido)-2-methoxyphenyl)-N^4-methylterephthalamide]
BRDT-BD2 [2]
  IC50: 0.026 µM
BRDT-BD1
  IC50: > 10 µM
[3]
  half-life at 2 μM: 20 min
[4]; [7]
  half-life at 2 μM: 18 min
His-BRDT-BD2
  Count (observed molecule count in the DEC-Tec screen against BRDT-BD2): 515

## CNC(=O)c1ccc(C(=O)Nc2cc(NC(=O)c3ccc4c(c3)c(-c3ccccc3C)nn4C)ccc2OC)cc1 [compound 6, N^1-(2-Methoxy-5-(1-methyl-3-(o-tolyl)-1H-indazole-5-carboxamido)phenyl)-N^4-methylterephthalamide]
BRDT-BD2 [2]
  IC50: 0.061 µM
BRDT-BD1
  IC50: 6.3 µM
[3]
  half-life at 2 μM: 40 min
[4]; [7]
  half-life at 2 μM: 17 min
His-BRDT-BD2
  Count (observed molecule count in the DEC-Tec screen against BRDT-BD2): 0

## CNC(=O)c1ccc(C(=O)Nc2cc(NC(=O)c3ccc4c(c3)c(-c3ccc(N)cc3)nn4C)ccc2OC)cc1 [compound 7, N^1-(5-(3-(4-Aminophenyl)-1-methyl-1H-indazole-5-carboxamido)-2-methoxyphenyl)-N^4-methylterephthalamide]
BRDT-BD2 [2]
  IC50: 0.015 µM
BRDT-BD1
  IC50: > 10 µM
[3]
  half-life at 2 μM: 51 min
[4]; [6]
  half-life at 2 μM: 250 min
His-BRDT-BD2
  Count (observed molecule count in the DEC-Tec screen against BRDT-BD2): 63

## CNC(=O)c1ccc(C(=O)Nc2cc(NC(=O)c3ccc4c(c3)c(-c3cc5ccccc5n3C)nn4C)ccc2C)cc1 [compound 8, N^1-Methyl-N^4-(2-methyl-5-(1-methyl-3-(1-methyl-1H-indol-2-yl)-1H-indazole-5-carboxamido)phenyl)terephthalamide]
BRDT-BD2 [2]
  IC50: 0.013 µM
BRDT-BD1
  IC50: > 10 µM
His-BRDT-BD2
  Count (observed molecule count in the DEC-Tec screen against BRDT-BD2): 846

## CNC(=O)c1ccc(C(=O)Nc2cc(NC(=O)c3ccc4c(c3)c(-c3ccc(N)cc3C)nn4C)ccc2C)cc1 [compound 9, N^1-(5-(3-(4-Amino-2-methylphenyl)-1-methyl-1H-indazole-5-carboxamido)-2-methylphenyl)-N^4-methylterephthalamide]
[4]
  human microsomal stability: high metabolic stability

## CNC(=O)c1ccc(C(=O)Nc2cc(NC(=O)c3ccc4c(c3)c(-c3ccc(N)nc3)nn4C)ccc2C)cc1 [compound 10, N^1-(5-(3-(6-Aminopyridin-3-yl)-1-methyl-1H-indazole-5-carboxamido)-2-methylphenyl)-N^4-methylterephthalamide]
BRDT-BD2 [2]
  IC50: 0.017 µM
BRDT-BD1
  IC50: > 10 µM
[3]
  mouse microsomal stability: high metabolic stability
[4]
  human microsomal stability: high metabolic stability
His-BRDT-BD2
  Count (observed molecule count in the DEC-Tec screen against BRDT-BD2): 3

## CNC(=O)c1ccc(C(=O)Nc2cc(NC(=O)c3ccc4c(c3)c(-c3ccncc3)nn4C)ccc2C)cc1 [compound 12, N^1-Methyl-N^4-(2-methyl-5-(1-methyl-3-(pyridin-4-yl)-1H-indazole-5-carboxamido)phenyl)terephthalamide]
BRDT-BD2 [2]
  IC50: 0.978 µM
BRDT-BD1
  IC50: > 10 µM
His-BRDT-BD2
  Count (observed molecule count in the DEC-Tec screen against BRDT-BD2): 0

## CNC(=O)c1ccc(C(=O)Nc2cc(NC(=O)c3ccc4c(c3)c(-c3cnc(N)cc3C)nn4C)ccc2C)cc1 [compound 15]
BRDT-BD2 [2]
  IC50: 0.022 µM
[3]
  mouse microsomal stability: high mouse microsomal stability

## CC(=O)Nc1cc(NC(=O)c2ccc3c(c2)c(-c2ccc(N)nc2)nn3C)ccc1C [compound 17, N-(3-Acetamido-4-methylphenyl)-3-(6-aminopyridin-3-yl)-1-methyl-1H-indazole-5-carboxamide]
BRDT-BD2 [2]
  IC50: 0.047 µM
BRDT-BD1
  IC50: > 10 µM
[3]
  mouse microsomal stability: high mouse microsomal stability

## CC(=O)Nc1cc(NC(=O)c2ccc3c(c2)c(-c2ccc(N)cc2C)nn3C)ccc1C [compound 20, N-(3-Acetamido-4-methylphenyl)-3-(4-amino-2-methylphenyl)-1-methyl-1H-indazole-5-carboxamide]
BRDT-BD2 [2]
  IC50: 0.008 µM
BRDT-BD1
  IC50: > 10 µM
bromodomains
  binding selectivity across bromodomains: potent and selective binding to only the second bromodomains within the BET subfamily
BRDT-BD2 [5]
  potency at binding BRDT-BD2 relative to (+)-JQ1: more than 20 fold

## CC(=O)Nc1cccc(NC(=O)c2ccc3c(c2)c(-c2ccc(N)cc2C)nn3C)c1 [compound 21, N-(3-Acetamidophenyl)-3-(4-amino-2-methylphenyl)-1-methyl-1H-indazole-5-carboxamide]
BRDT-BD2 [2]
  IC50: 0.014 µM
BRDT-BD1
  IC50: > 10 µM
[3]
  mouse microsomal stability: high mouse microsomal stability

## CNC(=O)c1cc(NC(=O)c2ccc3c(c2)c(-c2ccc(N)cc2C)nn3C)ccc1C [compound 22, 3-(4-Amino-2-methylphenyl)-1-methyl-N-(4-methyl-3-(methylcarbamoyl)phenyl)-1H-indazole-5-carboxamide]
BRDT-BD2 [2]
  IC50: 0.018 µM
BRDT-BD1
  IC50: > 10 µM
[3]
  mouse microsomal stability: high mouse microsomal stability

## COc1ccc(N(C)C(=O)c2ccc3c(c2)c(-c2ccc(N)cc2C)nn3C)cc1 [compound 26, 3-(4-Amino-2-methylphenyl)-N-(4-methoxyphenyl)-N,1-dimethyl-1H-indazole-5-carboxamide]
BRDT-BD2 [2]
  IC50: > 1 µM
BRDT-BD1
  IC50: > 10 µM

## COc1ccc(NC(=O)c2ccc3nn(C)c(-c4ccc(N)cc4C)c3c2)cc1 [compound 27, 3-(4-Amino-2-methylphenyl)-N-(4-methoxyphenyl)-2-methyl-2H-indazole-5-carboxamide]
BRDT-BD2 [2]
  IC50: 17.2 µM
BRDT-BD1
  IC50: > 10 µM

## CNC(=O)c1ccc2c(c1)c(-c1ccc(N)cc1C)nn2C [compound 55, 3-(4-Amino-2-methylphenyl)-N,1-dimethyl-1H-indazole-5-carboxamide]
BRDT-BD2 [2]
  IC50: 0.988 µM
BRDT-BD1
  IC50: > 10 µM

## Cc1cc(N)ccc1-c1nn(C)c2ccc(C(=O)Nc3ccc(OCC4CC4)cc3)cc12 [compound 65, 3-(4-Amino-2-methylphenyl)-N-(4-(cyclopropylmethoxy)phenyl)-1-methyl-1H-indazole-5-carboxamide]
BRDT-BD2 [2]
  IC50: 0.098 µM
BRDT-BD1
  IC50: > 10 µM

## CNC(=O)c1ccc2c(c1)c(-c1cc3ccccc3n1C)nn2C [compound 67, N,1-Dimethyl-3-(1-methyl-1H-indol-2-yl)-1H-indazole-5-carboxamide]
BRDT-BD2 [2]
  IC50: 0.261 µM
BRDT-BD1
  IC50: > 10 µM

## Cc1cc(N)ccc1-c1nn(C)c2ccc(-c3cnc(C(F)(F)F)nc3)cc12 [compound 77, 3-Methyl-4-(1-methyl-5-(2-(trifluoromethyl)pyrimidin-5-yl)-1H-indazol-3-yl)aniline]
BRDT-BD2 [2]
  IC50: 3.63 µM
BRDT-BD1
  IC50: > 10 µM

## Cc1cc(N)ccc1-c1nn(C)c2ccc(-c3cccnc3)cc12 [compound 78, 3-Methyl-4-(1-methyl-5-(pyridin-3-yl)-1H-indazol-3-yl)aniline]
BRDT-BD2 [2]
  IC50: > 10 µM
BRDT-BD1
  IC50: 2.44 µM

## Cc1ccc(-c2ccc3c(c2)c(-c2ccc(N)cc2C)nn3C)cn1 [compound 79, 3-Methyl-4-(1-methyl-5-(6-methylpyridin-3-yl)-1H-indazol-3-yl)aniline]
BRDT-BD2 [2]
  IC50: > 10 µM
BRDT-BD1
  IC50: 3.21 µM

## COc1ccc(-c2ccc3c(c2)c(-c2ccc(N)cc2C)nn3C)cn1 [compound 80, 4-(5-(6-Methoxypyridin-3-yl)-1-methyl-1H-indazol-3-yl)-3-methylaniline]
BRDT-BD2 [2]
  IC50: > 10 µM
BRDT-BD1
  IC50: 1.02 µM
